Assay results as given in paper PMC10004559, “Identification of residues involved in allosteric signal transmission from amino acid binding site of pyruvate kinase muscle isoform 2” (PLOS ONE, 2023).
Values joined by “and” are separate entries in the source; they are usually repeats but may differ in a detail not shown here. Equal values may be shown once. Read-outs that look alike come from different tables or passages of the source.

Assays:
wtPKM2 [1] = target: T1, wtPKM2 (Homo sapiens, UniProt P14618); test: PKM2-LDH coupled pyruvate kinase activity assay; assay type: biochemical; conditions: ADP 0.8 mM; for Vmax / kcat: 10 nM wtPKM2 in presence of 2 mM of the labelled AA, PEP varied
T1 construct: made in house; host or cells: E. coli BL21(DE3) pLysS
T1 sequence (P14618 whole entry): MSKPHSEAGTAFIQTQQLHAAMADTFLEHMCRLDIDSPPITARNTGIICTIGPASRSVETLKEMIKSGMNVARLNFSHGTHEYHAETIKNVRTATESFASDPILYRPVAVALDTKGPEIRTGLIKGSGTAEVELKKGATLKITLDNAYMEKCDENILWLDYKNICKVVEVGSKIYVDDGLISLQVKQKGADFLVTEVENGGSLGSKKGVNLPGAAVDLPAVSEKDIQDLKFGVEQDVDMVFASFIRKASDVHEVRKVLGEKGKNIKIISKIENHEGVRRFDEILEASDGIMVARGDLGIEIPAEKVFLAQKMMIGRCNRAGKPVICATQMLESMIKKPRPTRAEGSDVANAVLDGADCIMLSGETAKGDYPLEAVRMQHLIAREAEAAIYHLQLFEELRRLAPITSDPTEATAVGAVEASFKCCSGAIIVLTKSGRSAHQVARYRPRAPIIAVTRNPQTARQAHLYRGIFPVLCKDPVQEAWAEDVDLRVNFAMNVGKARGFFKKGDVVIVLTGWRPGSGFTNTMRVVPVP
Description: (§3) The decrease in absorbance at 340 nm was recorded for a minute to monitor the progress of the reactions.

PKM2 N75L [2] = target: T2, PKM2 N75L (Homo sapiens, UniProt P14618, N75L); test: PKM2-LDH coupled pyruvate kinase activity assay; assay type: biochemical; conditions: 4200 nM PKM2 N75L in presence of 2 mM of the labelled AA; PEP 0.025–8 mM, ADP 0.8 mM
T2 construct: made in house; host or cells: E. coli BL21(DE3) pLysS
T2 sequence (P14618 whole entry N75L): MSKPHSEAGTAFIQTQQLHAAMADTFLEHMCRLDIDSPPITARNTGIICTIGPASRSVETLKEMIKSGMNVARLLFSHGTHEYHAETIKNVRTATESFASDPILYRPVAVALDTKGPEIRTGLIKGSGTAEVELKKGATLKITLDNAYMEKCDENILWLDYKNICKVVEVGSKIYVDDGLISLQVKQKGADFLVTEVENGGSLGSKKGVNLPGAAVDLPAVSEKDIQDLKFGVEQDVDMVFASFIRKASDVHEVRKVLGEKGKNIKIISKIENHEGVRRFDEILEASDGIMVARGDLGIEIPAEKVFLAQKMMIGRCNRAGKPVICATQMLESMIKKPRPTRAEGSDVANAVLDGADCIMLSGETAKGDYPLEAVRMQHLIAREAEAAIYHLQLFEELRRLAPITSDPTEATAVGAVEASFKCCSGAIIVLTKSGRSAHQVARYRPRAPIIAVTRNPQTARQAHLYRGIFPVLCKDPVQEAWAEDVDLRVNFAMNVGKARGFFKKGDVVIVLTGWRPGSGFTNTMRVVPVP
Description: as §3

PKM2 R106A [3] = target: T3, PKM2 R106A (Homo sapiens, UniProt P14618, R106A); test: PKM2-LDH coupled pyruvate kinase activity assay; assay type: biochemical; conditions: for Vmax / kcat: 50 nM PKM2 R106A in presence of 2 mM of the labelled AA (Val 10 mM), PEP 0.025–8 mM, ADP 0.8 mM, Cys data fitted with allosteric sigmoidal equation; for decrease of catalytic efficiency of PKM2 R106A: in the presence of Val (10 mM) and Cys (2 mM), versus no AA
T3 construct: made in house; host or cells: E. coli BL21(DE3) pLysS
T3 sequence (P14618 whole entry R106A): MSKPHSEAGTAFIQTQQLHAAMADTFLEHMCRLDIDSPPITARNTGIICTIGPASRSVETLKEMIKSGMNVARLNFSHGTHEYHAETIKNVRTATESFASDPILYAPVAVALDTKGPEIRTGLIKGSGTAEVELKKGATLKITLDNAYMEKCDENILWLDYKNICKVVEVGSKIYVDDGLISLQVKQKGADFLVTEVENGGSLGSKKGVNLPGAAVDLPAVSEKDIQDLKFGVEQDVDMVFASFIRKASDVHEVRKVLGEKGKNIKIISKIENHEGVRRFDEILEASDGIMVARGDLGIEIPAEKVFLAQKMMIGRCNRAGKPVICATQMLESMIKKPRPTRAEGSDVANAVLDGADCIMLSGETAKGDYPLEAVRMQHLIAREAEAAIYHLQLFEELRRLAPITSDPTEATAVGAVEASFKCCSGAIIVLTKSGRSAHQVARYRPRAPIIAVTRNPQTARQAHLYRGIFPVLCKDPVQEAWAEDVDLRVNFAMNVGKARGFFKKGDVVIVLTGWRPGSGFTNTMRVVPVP
Description: as §3

PKM2 R106A [4] = target: T3, PKM2 R106A; test: Ligand binding assay, intrinsic tryptophan fluorescence quenching; conditions: for weakening of ADP binding affinity versus absence of any AAs: PKM2 R106A in the presence of the labelled AA; for decrease of affinity for the AA relative to wtPKM2: PKM2 R106A versus wtPKM2
Description: (§1) All ligand binding studies were conducted in a buffer containing 1.6 μM enzyme dissolved in 20 mM Tris-HCl (pH 7.5) and 150 mM KCl. […] The decrease of intrinsic tryptophan fluorescence with increasing substrate concentration was measured using a Cary Eclipse Fluorescence Spectrophotometer (Agilent Technologies, Santa Clara, CA). To determine the binding affinity of wtPKM2 and the variants for the AAs mentioned previously, the enzymes were dissolved in the buffer followed by monitoring fluorescence quenching as the AA concentration was increased. The wavelength used to excite PKM2 was set at 295 nm, while the emission wavelength was 340 nm with slit widths of 5 and 10 nm, respectively. The fluorescence intensity values were used to calculate fractional saturation, which was fitted to the one-site specific binding Eq (3), or the Hill Eq (4) using GraphPad Prism (San Diego, CA), Y=Bmax×X/Kd+X (3) Y=Bmax×x^h/Kdh+x^h (4) where Bmax is maximum binding, Y is fractional saturation, h is the Hill coefficient, Kd is dissociation constant, and X is ligand concentration.

PKM2 N75L [5] = target: T2, PKM2 N75L; test: Gel-filtration study of oligomeric state; conditions: 0.1 mg/ml PKM2 N75L, 10 mM AA
Description: (§2) The flow rate was kept constant at 0.5 ml/min using an AKTA Pure FPLC system (GE Healthcare Life Sciences, Marlborough, MA). All AA concentrations used in the experiments were fixed at 10 mM. Column calibration was conducted using gel-filtration molecular weight standards (Bio-Rad) containing bovine thyroglobulin (670 kDa), bovine γ-globulin (158 kDa), chicken ovalbumin (44 kDa), horse myoglobin (17 kDa), and vitamin B12 (1.35 kDa). The eluted protein peak was observed using UV absorbance at 280 nm. To normalize the lowest and highest intensity value, they were set to 0% and 100%, respectively, which was plotted against elution volume in GraphPad Prism (San Diego, CA).

PKM2 R106A [6] = target: T3, PKM2 R106A; test: Gel-filtration study of oligomeric state; conditions: 0.1 mg/ml PKM2 R106A, 10 mM AA
Description: as §2

wtPKM2 [7] = target: T1, wtPKM2; set-up: method as in PMID 32144209; conditions: wtPKM2 in the presence of Val; cited from earlier work
PKM2 N70D [8] = target: T4, PKM2 N70D (Homo sapiens, UniProt P14618, N70D); test: PKM2-LDH coupled pyruvate kinase activity assay; conditions: 65 nM PKM2 N70D in presence of 2 mM of the labelled AA; PEP 0.025–8 mM, ADP 0.8 mM
T4 sequence (P14618 whole entry N70D): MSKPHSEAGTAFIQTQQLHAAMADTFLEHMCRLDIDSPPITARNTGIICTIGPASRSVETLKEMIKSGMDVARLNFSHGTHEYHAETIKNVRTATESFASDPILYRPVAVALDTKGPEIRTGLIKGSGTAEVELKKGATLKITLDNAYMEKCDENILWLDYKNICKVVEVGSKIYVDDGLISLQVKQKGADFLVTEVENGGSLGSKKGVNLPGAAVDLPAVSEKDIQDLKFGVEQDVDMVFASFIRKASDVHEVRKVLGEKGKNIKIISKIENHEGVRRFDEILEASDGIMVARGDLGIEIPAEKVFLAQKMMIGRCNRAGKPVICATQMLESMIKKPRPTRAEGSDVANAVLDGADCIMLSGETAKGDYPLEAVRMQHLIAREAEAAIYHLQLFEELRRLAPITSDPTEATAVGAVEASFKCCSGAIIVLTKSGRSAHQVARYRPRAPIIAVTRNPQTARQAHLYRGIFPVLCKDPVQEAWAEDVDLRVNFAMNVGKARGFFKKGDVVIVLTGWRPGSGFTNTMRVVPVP
Description: as §3

PKM2 N70D [9] = target: T4, PKM2 N70D; test: Gel-filtration study of oligomeric state; set-up: made in house; host or cells: E. coli BL21(DE3) pLysS; conditions: 0.1 mg/ml PKM2 N70D, 10 mM AA
Description: as §2

PKM2 N75L [10] = target: T2, PKM2 N75L; test: Ligand binding assay, intrinsic tryptophan fluorescence quenching; conditions: 1.6 μM PKM2 N75L, no AA ligand; read-out: Kd, ADP as titrant
Description: The decrease of intrinsic tryptophan fluorescence with increasing substrate concentration was measured using a Cary Eclipse Fluorescence Spectrophotometer (Agilent Technologies, Santa Clara, CA). To determine the binding affinity of wtPKM2 and the variants for the AAs mentioned previously, the enzymes were dissolved in the buffer followed by monitoring fluorescence quenching as the AA concentration was increased. The wavelength used to excite PKM2 was set at 295 nm, while the emission wavelength was 340 nm with slit widths of 5 and 10 nm, respectively. The fluorescence intensity values were used to calculate fractional saturation, which was fitted to the one-site specific binding Eq (3), or the Hill Eq (4) using GraphPad Prism (San Diego, CA), Y=Bmax×X/Kd+X (3) Y=Bmax×x^h/Kdh+x^h (4) where Bmax is maximum binding, Y is fractional saturation, h is the Hill coefficient, Kd is dissociation constant, and X is ligand concentration.

wtPKM2 [11] = target: T1, wtPKM2; conditions: cited from earlier work
PKM2 N70D [12] = target: T4, PKM2 N70D; test: Ligand binding assay, intrinsic tryptophan fluorescence quenching; set-up: made in house; host or cells: E. coli BL21(DE3) pLysS; conditions: no AA ligand, read-out: Kd, ADP as titrant
Description: as §1

wtPKM2 [13] = target: T1, wtPKM2; test: Gel-filtration study of oligomeric state; conditions: 0.1 mg/ml wtPKM2, 10 mM AA
Description: as §2

[14] = 2 mM AA, 10 nM enzyme, PEP 0.15–8 mM, versus no AA
[15] = 1.6 μM PKM2 R106A, read-out: Kd for the AA (AA as titrant)

Vmax (wtPKM2 [1])	kcat (wtPKM2 [1])	Vmax (PKM2 N75L [2])	kcat (PKM2 N75L [2])	Vmax (PKM2 R106A [3])	kcat (PKM2 R106A [3])	Kd (PKM2 R106A [4]; [15])	decrease of affinity for the AA relative to wtPKM2 (PKM2 R106A [4])	Vmax (PKM2 N70D [8])	kcat (PKM2 N70D [8])	oligomeric state change (PKM2 N70D [9])	Structure (SMILES)	other results
74 ± 5 µM/min	7.4±0.5 ×10^3 min^-1	34 ± 2 µM/min	0.008±0.0 ×10^3 min^-1	346 ± 12 µM/min	6.9±0.2 ×10^3 min^-1	~1600 µM	2–4 fold	324 ± 37 µM/min	4.9±0.6 ×10^3 min^-1	did not change the oligomeric state	CC(C)[C@H](N)C(=O)O [Val, valine]	decrease of kcat/Km of wtPKM2 (wtPKM2 [1]; [14]): ~ 4 fold; decrease of catalytic efficiency of PKM2 R106A (PKM2 R106A [3]): 2–7 fold; weakening of ADP binding affinity versus absence of any AAs (PKM2 R106A [4]): ~ 10 fold; oligomeric state change (PKM2 N75L [5]): the dimer/monomer fraction increased; oligomeric state change (PKM2 R106A [6]): resulted in a mixture of tetramer and dimer/monomer equilibrium; oligomeric state change (wtPKM2 [7]): shift from an active tetramer to a mixture of tetramer and dimer/monomer equilibrium
104 ± 2 µM/min	10.4±0.2 ×10^3 min^-1	51 ± 3 µM/min	0.012±0.0 ×10^3 min^-1	295 ± 6 µM/min	5.9±0.1 ×10^3 min^-1	~70 µM	–	307 ± 10 µM/min	4.7±0.1 ×10^3 min^-1	dimer/monomer fraction decreased	N[C@@H](CC(=O)O)C(=O)O [Asp, aspartate]	–
113 ± 4 µM/min	11.3±0.4 ×10^3 min^-1	50 ± 2 µM/min	0.012±0.0 ×10^3 min^-1	318 ± 8 µM/min	6.3±0.2 ×10^3 min^-1	–	2–4 fold	340 ± 8 µM/min	5.2±0.3 ×10^3 min^-1	dimer/monomer fraction decreased	NC(=O)C[C@H](N)C(=O)O [Asn, asparagine]	increase of kcat/Km of wtPKM2 (wtPKM2 [1]; [14]): ~ 8 fold; Kd (PKM2 R106A [4]; […] PKM2 R106A, read-out: Kd for the AA (AA as titrant)): 42 ± 10 µM
65 ± 7 µM/min	6.5±0.7 ×10^3 min^-1	33 ± 3 µM/min	0.008±0.0 ×10^3 min^-1	291 ± 9 µM/min	5.8±0.2 ×10^3 min^-1	36 µM	2–4 fold	334 ± 15 µM/min	5.1±0.2 ×10^3 min^-1	did not change the oligomeric state	N[C@@H](CS)C(=O)O [Cys, cysteine]	decrease of kcat/Km of wtPKM2 (wtPKM2 [1]; [14]): ~ 4 fold; decrease of catalytic efficiency of PKM2 R106A (PKM2 R106A [3]): 2–7 fold; weakening of ADP binding affinity versus absence of any AAs (PKM2 R106A [4]): ~ 10 fold; oligomeric state change (PKM2 N75L [5]): the dimer/monomer fraction increased; oligomeric state change (PKM2 R106A [6]): resulted in a mixture of tetramer and dimer/monomer equilibrium; oligomeric state change (wtPKM2 [13]): shift from an active tetramer to a mixture of tetramer and dimer/monomer equilibrium

The remaining lines, values behind:

Structure (SMILES)	Vmax (wtPKM2 [1])	kcat (wtPKM2 [1])	Vmax (PKM2 N75L [2])	kcat (PKM2 N75L [2])	Vmax (PKM2 R106A [3])	kcat (PKM2 R106A [3])	Kd (PKM2 R106A [4]; [15])	decrease of affinity for the AA relative to wtPKM2 (PKM2 R106A [4])	Vmax (PKM2 N70D [8])	kcat (PKM2 N70D [8])	oligomeric state change (PKM2 N70D [9])	other results
Nc1ncnc2c1ncn2[C@@H]1O[C@H](COP(=O)(O)OP(=O)(O)O)[C@@H](O)[C@H]1O [ADP, adenosine diphosphate]	–	–	–	–	–	–	–	–	–	–	–	Kd (PKM2 N75L [10]): 449 ± 48 µM; Kd (PKM2 R106A [4]; 1.6 μM PKM2 R106A, no AA ligand, read-out: Kd, ADP as titrant): 257 ± 24 µM; Kd (wtPKM2 [11]; […] wtPKM2, no AA ligand, marked (2) in S2 Table, read-out: Kd, ADP as titrant): 237 ± 54 µM; Kd (PKM2 N70D [12]): 644 ± 154 µM
C=C(OP(=O)(O)O)C(=O)O [PEP, phosphoenolpyruvate]	–	–	–	–	–	–	–	–	–	–	–	Kd (wtPKM2 [11]; read-out: Kd, PEP as titrant, […] wtPKM2, no AA ligand, marked (2) in S2 Table): 10 ± 2 µM
O=C(COP(=O)(O)O)[C@@H](O)[C@H](O)[C@H](O)COP(=O)(O)O [FBP, fructose-1,6-bisphosphate]	–	–	–	–	–	–	–	–	–	–	–	Kd (wtPKM2 [11]; wtPKM2, read-out: Kd for FBP): 0.00098 µM and 0.001 µM
